{"source": "paper PMC10041525", "about": "“New Dual Inhibitors of Bacterial Topoisomerases with Broad-Spectrum Antibacterial Activity and In Vivo Efficacy against Vancomycin-Intermediate Staphylococcus aureus” (Journal of Medicinal Chemistry, 2023)", "key": {"P. aeruginosa ATCC 27853": {"test_system": "P. aeruginosa ATCC 27853", "design": "method as in earlier work", "conditions": "QC range for P. aeruginosa ATCC 27853, ref CLSI; cited from earlier work"}, "E. faecalis ATCC 29212": {"test_system": "E. faecalis ATCC 29212", "test": "IHMA QC MIC", "assay_type": "cell-based", "source_text": "Supplement jm2c01905_si_004.xlsx, sheet \"QC\" | column: MIC [µg/mL]"}, "H. influenzae ATCC 49766": {"test_system": "H. influenzae ATCC 49766", "design": "method as in earlier work", "conditions": "QC range for H. influenzae ATCC 49766, ref CLSI; cited from earlier work"}, "E. coli ATCC 25922": {"test_system": "E. coli ATCC 25922", "design": "method as in earlier work", "conditions": "QC range for E. coli ATCC 25922, ref CLSI; cited from earlier work"}, "S. pneumoniae ATCC 49619": {"test_system": "S. pneumoniae ATCC 49619", "design": "method as in earlier work", "conditions": "QC range for S. pneumoniae ATCC 49619, ref CLSI; cited from earlier work"}, "E. faecium (n = 13)": {"test_system": "E. faecium (n = 13)", "test": "MIC broth microdilution at IHMA Europe", "assay_type": "cell-based", "conditions": "for MIC: Enterococcus faecium, read-out: MIC"}, "S. pneumoniae (n = 12)": {"test_system": "S. pneumoniae (n = 12)", "test": "MIC broth microdilution at IHMA Europe", "assay_type": "cell-based", "conditions": "for MIC: Streptococcus pneumoniae, read-out: MIC"}, "[1]": {"test_system": "Haemophilus influenzae (n = 14)", "test": "MIC broth microdilution at IHMA Europe", "assay_type": "cell-based, H. influenzae", "conditions": "for MIC: Haemophilus influenzae, read-out: MIC"}}, "note": "Read-outs that look alike come from different tables or passages of the source."}
{"compound": "C[C@@H](O)[C@H]1C(=O)N2C(C(=O)O)=C(SCCNC=N)C[C@H]12", "note": "[Imipenem, imipenem]", "values": [{"measurement": "MIC, CLSI Range", "setting": "P. aeruginosa ATCC 27853", "result": "1 to 4", "unit": "µg/mL"}, {"measurement": "MIC", "setting": "E. faecalis ATCC 29212; Enterococcus faecalis, ATCC29212, QC strain E. faecalis ATCC 29212, test date 2021-11-11, read-out: MIC", "result": 1, "unit": "µg/mL"}, {"measurement": "MIC", "setting": "E. faecalis ATCC 29212; QC strain E. faecalis ATCC 29212, test date 2021-11-26", "result": 1, "unit": "µg/mL"}, {"measurement": "MIC, CLSI Range", "setting": "H. influenzae ATCC 49766", "result": "0,25 - 1 µg/mL"}, {"measurement": "MIC, CLSI Range", "setting": "E. coli ATCC 25922", "result": "0,06 - 0,25 µg/mL"}, {"measurement": "MIC, CLSI Range", "setting": "S. pneumoniae ATCC 49619", "result": "0,03 - 0,12 µg/mL"}, {"measurement": "MIC", "setting": "E. faecium (n = 13); E. faecium IHMA N° 1764866", "result": "> 32", "unit": "µg/mL"}, {"measurement": "MIC", "setting": "E. faecium (n = 13); E. faecium IHMA N° 1765436", "result": 16, "unit": "µg/mL"}, {"measurement": "MIC", "setting": "E. faecium (n = 13); E. faecium IHMA N° 1765746", "result": "> 32", "unit": "µg/mL"}, {"measurement": "MIC", "setting": "E. faecium (n = 13); E. faecium IHMA N° 1893573", "result": "> 32", "unit": "µg/mL"}, {"measurement": "MIC", "setting": "E. faecium (n = 13); E. faecium IHMA N° 1893846", "result": "> 32", "unit": "µg/mL"}, {"measurement": "MIC", "setting": "E. faecium (n = 13); E. faecium IHMA N° 1893942", "result": "> 32", "unit": "µg/mL"}, {"measurement": "MIC", "setting": "E. faecium (n = 13); E. faecium IHMA N° 1894055", "result": "> 32", "unit": "µg/mL"}, {"measurement": "MIC", "setting": "E. faecium (n = 13); E. faecium IHMA N° 1897027", "result": "> 32", "unit": "µg/mL"}, {"measurement": "MIC", "setting": "E. faecium (n = 13); E. faecium IHMA N° 1897101", "result": "> 32", "unit": "µg/mL"}, {"measurement": "MIC", "setting": "E. faecium (n = 13); E. faecium IHMA N° 1904592", "result": "> 32", "unit": "µg/mL"}, {"measurement": "MIC", "setting": "E. faecium (n = 13); E. faecium IHMA N° 2075051", "result": "> 32", "unit": "µg/mL"}, {"measurement": "MIC", "setting": "E. faecium (n = 13); E. faecium IHMA N° 2077718", "result": "> 32", "unit": "µg/mL"}, {"measurement": "MIC", "setting": "E. faecium (n = 13); E. faecium IHMA N° 2083787", "result": "> 32", "unit": "µg/mL"}, {"measurement": "Cumulative % at MIC", "setting": "E. faecium (n = 13); MIC […] µg/mL", "result": 7.7, "unit": "%"}, {"measurement": "No. of isolates at MIC", "setting": "E. faecium (n = 13); MIC […] µg/mL", "result": 1}, {"measurement": "Cumulative % at MIC", "setting": "E. faecium (n = 13); MIC >32 µg/mL", "result": 100.0, "unit": "%"}, {"measurement": "No. of isolates at MIC", "setting": "E. faecium (n = 13); MIC >32 µg/mL", "result": 12}, {"measurement": "Cumulative % at MIC", "setting": "S. pneumoniae (n = 12); MIC 0.06 µg/mL", "result": 25.0, "unit": "%"}, {"measurement": "No. of isolates at MIC", "setting": "S. pneumoniae (n = 12); MIC 0.06 µg/mL", "result": 1}, {"measurement": "Cumulative % at MIC", "setting": "S. pneumoniae (n = 12); MIC 1 µg/mL", "result": 100.0, "unit": "%"}, {"measurement": "No. of isolates at MIC", "setting": "S. pneumoniae (n = 12); MIC 1 µg/mL", "result": 1}, {"measurement": "Cumulative % at MIC", "setting": "S. pneumoniae (n = 12); MIC ≤0.015 µg/mL", "result": 16.7, "unit": "%"}, {"measurement": "No. of isolates at MIC", "setting": "S. pneumoniae (n = 12); MIC ≤0.015 µg/mL", "result": 2}, {"measurement": "MIC", "setting": "S. pneumoniae (n = 12); S. pneumoniae IHMA N° 1775387", "result": 0.25, "unit": "µg/mL"}, {"measurement": "MIC", "setting": "S. pneumoniae (n = 12); S. pneumoniae IHMA N° 1776057", "result": 0.25, "unit": "µg/mL"}, {"measurement": "MIC", "setting": "S. pneumoniae (n = 12); S. pneumoniae IHMA N° 1785617", "result": 0.25, "unit": "µg/mL"}, {"measurement": "MIC", "setting": "S. pneumoniae (n = 12); S. pneumoniae IHMA N° 1800765", "result": "≤ 0.015", "unit": "µg/mL"}, {"measurement": "MIC", "setting": "S. pneumoniae (n = 12); S. pneumoniae IHMA N° 1811259", "result": 0.12, "unit": "µg/mL"}, {"measurement": "MIC", "setting": "S. pneumoniae (n = 12); S. pneumoniae IHMA N° 1831562", "result": "≤ 0.015", "unit": "µg/mL"}, {"measurement": "MIC", "setting": "S. pneumoniae (n = 12); S. pneumoniae IHMA N° 1902609", "result": 0.12, "unit": "µg/mL"}, {"measurement": "MIC", "setting": "S. pneumoniae (n = 12); S. pneumoniae IHMA N° 1979675", "result": 0.25, "unit": "µg/mL"}, {"measurement": "MIC", "setting": "S. pneumoniae (n = 12); S. pneumoniae IHMA N° 1991963", "result": 1, "unit": "µg/mL"}, {"measurement": "MIC", "setting": "S. pneumoniae (n = 12); S. pneumoniae IHMA N° 2057487", "result": 0.12, "unit": "µg/mL"}, {"measurement": "MIC", "setting": "S. pneumoniae (n = 12); S. pneumoniae IHMA N° 2073087", "result": 0.25, "unit": "µg/mL"}, {"measurement": "MIC", "setting": "S. pneumoniae (n = 12); S. pneumoniae IHMA N° 2117109", "result": 0.06, "unit": "µg/mL"}, {"measurement": "MIC", "setting": "[1]; H. influenzae IHMA N° 1227715", "result": 1, "unit": "µg/mL"}, {"measurement": "MIC", "setting": "[1]; H. influenzae IHMA N° 1241620", "result": 0.5, "unit": "µg/mL"}, {"measurement": "MIC", "setting": "[1]; H. influenzae IHMA N° 1244149", "result": 0.5, "unit": "µg/mL"}, {"measurement": "MIC", "setting": "[1]; H. influenzae IHMA N° 1249803", "result": 0.25, "unit": "µg/mL"}, {"measurement": "MIC", "setting": "[1]; H. influenzae IHMA N° 1254355", "result": 0.5, "unit": "µg/mL"}, {"measurement": "MIC", "setting": "[1]; H. influenzae IHMA N° 1258580", "result": 0.5, "unit": "µg/mL"}, {"measurement": "MIC", "setting": "[1]; H. influenzae IHMA N° 1262734", "result": 0.5, "unit": "µg/mL"}, {"measurement": "MIC", "setting": "[1]; H. influenzae IHMA N° 1272723", "result": 0.5, "unit": "µg/mL"}, {"measurement": "MIC", "setting": "[1]; H. influenzae IHMA N° 1286846", "result": 0.5, "unit": "µg/mL"}, {"measurement": "MIC", "setting": "[1]; H. influenzae IHMA N° 1337530", "result": 1, "unit": "µg/mL"}, {"measurement": "MIC", "setting": "[1]; H. influenzae IHMA N° 1440085", "result": 0.12, "unit": "µg/mL"}, {"measurement": "MIC", "setting": "[1]; H. influenzae IHMA N° 1479509", "result": 0.5, "unit": "µg/mL"}, {"measurement": "MIC", "setting": "[1]; H. influenzae IHMA N° 1952952", "result": 0.12, "unit": "µg/mL"}, {"measurement": "MIC", "setting": "[1]; H. influenzae IHMA N° 2047461", "result": 0.5, "unit": "µg/mL"}, {"measurement": "Cumulative % at MIC", "setting": "[1]; MIC 0.5 µg/mL", "result": 85.7, "unit": "%"}, {"measurement": "No. of isolates at MIC", "setting": "[1]; MIC 0.5 µg/mL", "result": 9}, {"measurement": "Cumulative % at MIC", "setting": "[1]; MIC 1 µg/mL", "result": 100.0, "unit": "%"}, {"measurement": "No. of isolates at MIC", "setting": "[1]; MIC 1 µg/mL", "result": 2}]}
